# From US9580463B2 (BRISTOL-MYERS SQUIBB COMPANY, priority 2013, dated 2017)
# Test system: HCV genotype 1b (Con1) replicon in HUH-7 cells
# Assay: HCV replicon luciferase reporter assay, genotype 1b
# Assay type: cell-based
# Conditions: Hepatitis C virus, 72 h, genotype 1b replicon, 3 days incubation, read-out: LE_1b (EC50, range)
# Source text: An HCV replicon whole cell system was established as described by Lohmann V, Korner F, Koch J, Herian U, Theilmann L, Bartenschlager R., Science 285(5424):110-3 (1999) and modified to introduce a luciferase reporter, as first described by Krieger et al (Krieger N, Lohmann V, and Bartenschlager R, J. Virol. 75(10):4614-4624 (2001)). CDNA encoding a humanized form of the Renilla luciferase gene and a linker sequence fused directly to the 3′-end of the luciferase gene were introduced into the replicon construct using an Asc1 restriction site located in core, directly upstream of the neomycin marker gene. The adaptive mutation at position 1179 (serine to isoleucine) was also introduced (Blight K J, Kolykhalov, A A, Rice, C M, Science 290(5498):1972-1974). A stable cell line constitutively expressing this HCV replicon construct was generated by first linearizing plasmid DNAs with ScaI. RNA transcripts were synthesized in vitro using the T7 MegaScript transcription kit (Ambion, Austin, Tex.) according to manufacturer's directions. In vitro transcripts of the cDNA were transfected into the human hepatoma cell line, HUH-7. […] Resulting cell lines were characterized for positive and negative strand RNA production and protein production over time. […]
# HCV replicon luciferase assays were developed to monitor the inhibitory effects of compounds described in the disclosure on HCV genotypes 1a and 1b viral replication. HUH-7 cells, constitutively expressing the HCV replicon, were grown in Dulbecco's Modified Eagle Media (DMEM) (Gibco-BRL) containing 10% Fetal calf serum (FCS) (Sigma) and 1 mg/mL G418 (Gibco-BRL). Compounds were serially diluted 3 folds in DMSO for a twenty-point titration and subsequently transferred to sterile 384-well tissue-culture treated plates (Corning cat #3571). The plates were then seeded with 50 μL of cells at a density of 3.0×10^3 cells/well in DMEM containing 4% FCS (final DMSO concentration at 0.5%). After 3 days incubation at 37° C., cells were analyzed for Renilla Luciferase activity using the EnduRen as substrate (Promega cat #E6485). The EnduRen substrate was diluted in DMEM and then added to the plates to a final concentration of 7.5 μM. The plates were incubated for 2 hrs at 37° C. and then read immediately for 30 seconds with Viewlux Imager (PerkinElmer) using a luminescence program. To assess cytotoxicity of compounds, CC50 values were generated by multiplexing the EnduRen-containing plates with Cell Titer-Blue (Promega, cat # G8082). Cell-Titer Blue (3 μL) was added to each well and incubated for 8 hrs at 37° C. The fluorescence signal from each well was read, with an excitation wavelength at 525/10 nm and an emission wavelength of 598/10 nm, using the Viewlux Imager.
# The EC50 values for compounds were calculated by using a four-parameter logistic equation: y=A+((B−A)/(1+((C/x)^D))), where A and B denotes minimal and maximal % inhibition, respectively, C is the EC50, D is the hill slope and x represents compound concentration.
row,SMILES,EC50
1,"COC[C@@H]1C[C@@H](C)CC/C=C\[C@@H]2C[C@@]2(C(=O)NS(=O)(=O)C2(C)CC2)NC(=O)[C@@H]2C[C@@H](Oc3nc4cc(OC)c(F)cc4nc3C(F)(F)F)CN2C(=O)[C@H]1NC(=O)OC(C)(C)C [Compound 1045, tert-butyl ((2R,6S,7R,9S,13aS,14aR,16aS,Z)-2-((6-fluoro-7-methoxy-3-(trifluoromethyl)quinoxalin-2-yl)oxy)-7-(methoxymethyl)-9-methyl-14a-(((1-methylcyclopropyl)sulfonyl)carbamoyl)-5,16-dioxo-1,2,3,5,6,7,8,9,10,11,13a,14,14a,15,16,16a-hexadecahydrocyclopropa[e]pyrrolo[1,2-a][1,4]diazacyclopentadecin-6-yl)carbamate]",1.01 to 5 nM
2,"CCOc1ccc2nc(C(F)(F)F)c(O[C@@H]3C[C@H]4C(=O)N[C@]5(C(=O)NS(=O)(=O)C6(C)CC6)C[C@H]5/C=C\CC[C@@H](C)C[C@@H](COC)[C@H](NC(=O)OC(C)(C)C(C)(F)F)C(=O)N4C3)nc2c1 [Compound 1052, 3,3-difluoro-2-methylbutan-2-yl ((2R,6S,7R,9R,13aS,14aR,16aS,Z)-2-((7-ethoxy-3-(trifluoromethyl)quinoxalin-2-yl)oxy)-7-(methoxymethyl)-9-methyl-14a-(((1-methylcyclopropyl)sulfonyl)carbamoyl)-5,16-dioxo-1,2,3,5,6,7,8,9,10,11,13a,14,14a,15,16,16a-hexadecahydrocyclopropa[e]pyrrolo[1,2-a][1,4]diazacyclopentadecin-6-yl)carbamate]",0.1 to 0.5 nM
3,"CCOc1ccc2nc(C(F)(F)F)c(O[C@@H]3C[C@H]4C(=O)N[C@]5(C(=O)NS(=O)(=O)C6(C)CC6)C[C@H]5/C=C\CC[C@@H](C)C[C@@H](COC)[C@H](NC(=O)OC(C)(C)C)C(=O)N4C3)nc2c1 [Compound 1050, tert-butyl ((2R,6S,7R,9R,13aS,14aR,16aS,Z)-2-((7-ethoxy-3-(trifluoromethyl)quinoxalin-2-yl)oxy)-7-(methoxymethyl)-9-methyl-14a-(((1-methylcyclopropyl)sulfonyl)carbamoyl)-5,16-dioxo-1,2,3,5,6,7,8,9,10,11,13a,14,14a,15,16,16a-hexadecahydrocyclopropa[e]pyrrolo[1,2-a][1,4]diazacyclopentadecin-6-yl)carbamate]",0.1 to 0.5 nM
4,"CCOc1cnc(O[C@@H]2C[C@H]3C(=O)N[C@]4(C(=O)NS(=O)(=O)C5(C)CC5)C[C@H]4/C=C\CC[C@H](C)C[C@@H](COC)[C@H](NC(=O)OC(C)(C)C(F)(F)F)C(=O)N3C2)c2ccc(OC)cc12 [Compound 1065, 1,1,1-trifluoro-2-methylpropan-2-yl ((2R,6S,7R,9S,13aS,14aR,16aS,Z)-2-((4-ethoxy-6-methoxyisoquinolin-1-yl)oxy)-7-(methoxymethyl)-9-methyl-14a-(((1-methylcyclopropyl)sulfonyl)carbamoyl)-5,16-dioxo-1,2,3,5,6,7,8,9,10,11,13a,14,14a,15,16,16a-hexadecahydrocyclopropa[e]pyrrolo[1,2-a][1,4]diazacyclopentadecin-6-yl)carbamate]",0.1 to 0.5 nM
5,"CCOc1ccc2nc(C(F)(F)F)c(O[C@@H]3C[C@H]4C(=O)N[C@]5(C(=O)NS(=O)(=O)C6(C)CC6)C[C@H]5/C=C\CC[C@H](C)C[C@@H](COC)[C@H](NC(=O)OC(C)(C)C(F)(F)F)C(=O)N4C3)nc2c1 [Compound 1053, 1,1,1-trifluoro-2-methylpropan-2-yl ((2R,6S,7R,9S,13aS,14aR,16aS,Z)-2-((7-ethoxy-3-(trifluoromethyl)quinoxalin-2-yl)oxy)-7-(methoxymethyl)-9-methyl-14a-(((1-methylcyclopropyl)sulfonyl)carbamoyl)-5,16-dioxo-1,2,3,5,6,7,8,9,10,11,13a,14,14a,15,16,16a-hexadecahydrocyclopropa[e]pyrrolo[1,2-a][1,4]diazacyclopentadecin-6-yl)carbamate]",1.01 to 5 nM
6,"COC[C@@H]1C[C@H](C)CC/C=C\[C@@H]2C[C@@]2(C(=O)NS(=O)(=O)C2(C)CC2)NC(=O)[C@@H]2C[C@@H](Oc3nc4cc(OC(C)C)ccc4nc3C(F)(F)F)CN2C(=O)[C@H]1NC(=O)OC(C)(C)C(F)(F)F [Compound 1058, 1,1,1-trifluoro-2-methylpropan-2-yl ((2R,6S,7R,9R,13aS,14aR,16aS,Z)-2-((7-isopropoxy-3-(trifluoromethyl)quinoxalin-2-yl)oxy)-7-(methoxymethyl)-9-methyl-14a-(((1-methylcyclopropyl)sulfonyl)carbamoyl)-5,16-dioxo-1,2,3,5,6,7,8,9,10,11,13a,14,14a,15,16,16a-hexadecahydrocyclopropa[e]pyrrolo[1,2-a][1,4]diazacyclopentadecin-6-yl)carbamate]",0.1 to 0.5 nM
7,"CCOc1ccc2nc(C(F)(F)F)c(O[C@@H]3C[C@H]4C(=O)N[C@]5(C(=O)NS(=O)(=O)C6(C)CC6)C[C@H]5/C=C\CC[C@H](C)C[C@@H](COC)[C@H](NC(=O)OC(C)(C)C)C(=O)N4C3)nc2c1 [Compound 1049, tert-butyl ((2R,6S,7R,9S,13aS,14aR,16aS,Z)-2-((7-ethoxy-3-(trifluoromethyl)quinoxalin-2-yl)oxy)-7-(methoxymethyl)-9-methyl-14a-(((1-methylcyclopropyl)sulfonyl)carbamoyl)-5,16-dioxo-1,2,3,5,6,7,8,9,10,11,13a,14,14a,15,16,16a-hexadecahydrocyclopropa[e]pyrrolo[1,2-a][1,4]diazacyclopentadecin-6-yl)carbamate]",1.01 to 5 nM
8,"COC[C@@H]1C[C@H](C)CC/C=C\[C@@H]2C[C@@]2(C(=O)NS(=O)(=O)C2(C)CC2)NC(=O)[C@@H]2C[C@@H](Oc3nc(OC)c4c(OC)cccc4n3)CN2C(=O)[C@H]1NC(=O)OC(C)(C)C(C)(F)F [Compound 1062, 3,3-difluoro-2-methylbutan-2-yl ((2R,6S,7R,9R,13aS,14aR,16aS,Z)-2-((4,5-dimethoxyquinazolin-2-yl)oxy)-7-(methoxymethyl)-9-methyl-14a-(((1-methylcyclopropyl)sulfonyl)carbamoyl)-5,16-dioxo-1,2,3,5,6,7,8,9,10,11,13a,14,14a,15,16,16a-hexadecahydrocyclopropa[e]pyrrolo[1,2-a][1,4]diazacyclopentadecin-6-yl)carbamate]",1.01 to 5 nM
9,"COC[C@@H]1C[C@@H](C)CC/C=C\[C@@H]2C[C@@]2(C(=O)NS(=O)(=O)C2(C)CC2)NC(=O)[C@@H]2C[C@@H](Oc3nc(OC)c4c(OC)cccc4n3)CN2C(=O)[C@H]1NC(=O)OC(C)(C)C(F)(F)F [Compound 1059, 1,1,1-trifluoro-2-methylpropan-2-yl ((2R,6S,7R,9S,13aS,14aR,16aS,Z)-2-((4,5-dimethoxyquinazolin-2-yl)oxy)-7-(methoxymethyl)-9-methyl-14a-(((1-methylcyclopropyl)sulfonyl)carbamoyl)-5,16-dioxo-1,2,3,5,6,7,8,9,10,11,13a,14,14a,15,16,16a-hexadecahydrocyclopropa[e]pyrrolo[1,2-a][1,4]diazacyclopentadecin-6-yl)carbamate]",35 to 620 nM
